pEC50: −log10 of the molar value.
Tests used:
[1] = NOVARTIS: Cytotoxicity against human hepatocellular carcinoma cell line (Huh7); type: toxicity, cell-based, Huh-7; settings: Huh7 cells (hepatocellular carcinoma cell line)
Plasmodium falciparum [2] = test: NOVARTIS: Inhibition of Plasmodium falciparum 3D7 (drug-susceptible) proliferation in erythrocyte-based infection assay; type: functional, organism-based; settings: Plasmodium falciparum, 3D7
Plasmodium falciparum [3] = test: NOVARTIS: Inhibition of Plasmodium falciparum W2 (drug-resistant) proliferation in erythrocyte-based infection assay; type: functional, organism-based; settings: Plasmodium falciparum, W2; read-out: EC50

Row | Structure (SMILES) | CC50 [1] [µM] | pEC50 (Plasmodium falciparum [2]) | pEC50 (Plasmodium falciparum [3])
1 | COc1cc(CNc2ccc3nc(N)nc(N)c3c2)cc(OC)c1OC | > 10 | < 5.99 | < 5.90
2 | O=c1c(=Cc2ccc(-c3ccc([N+](=O)[O-])cc3Cl)o2)sc2nc3ccccc3n12 | > 10 | < 5.95 | < 5.90
3 | COc1ccc(-c2ccc(C=C3C(=O)NC(=S)NC3=O)o2)cc1Cl | > 10 | < 5.98 | < 5.90
4 | CN(C)CCN1CCN(c2cncc(-c3cccnc3)n2)CC1 | > 10 | < 5.95 | < 5.90
5 | CCNC(=O)NS(=O)(=O)c1cnccc1Sc1cccc(C)c1 | > 10 | < 5.99 | < 5.90
6 | N#Cc1nc(C(=O)N2CCOCC2)oc1N1CCOCC1 | > 10 | 6.00 | < 5.90
7 | CC1CCCCN1CCCNc1ncc(C(=O)NCCc2ccccc2)c(Nc2ccccc2)n1 (stereo not drawn) | > 10 | 5.95 | < 5.90
8 | COc1cc2c(cc1OC)C(=NN=C1NC(C)(C)Cc3ccccc31)NC(C)(C)C2 | > 10 | 5.99 | < 5.90
9 | CC(C)CC1=Nc2cc(C(=O)NC(C)C)ccc2CN1Cc1ccccc1 | > 10 | < 5.99 | < 5.90
10 | COc1cc2c(cc1/C=C(/C#N)c1cccc(C)c1)OCO2 | > 10 | < 5.97 | < 5.90
11 | CCOc1ccc(N2C(=O)c3ccccc3NC2(C)C)cc1 | > 100 | < 5.00 | < 4.90
12 | Cc1nn(-c2cc(N3CCOCC3)ccc2[N+](=O)[O-])c(=O)c2ccccc12 | > 10 | < 6.00 | < 5.90
13 | CCOC(=O)c1ccc(NC(=O)c2sc(NC(=O)c3cc(OC)c(OC)c(OC)c3)c(C(=O)OCC)c2C)cc1 | > 10 | < 6.00 | < 5.90
14 | COc1ccc(CN2CCc3nnc(CCc4ccccc4)n3CC2)c(F)c1 | > 10 | < 5.98 | < 5.90
15 | COc1ccc2nc(NC(=O)c3ccc(C#N)cc3)sc2c1 | > 10 | < 5.98 | < 5.90
16 | O=C(Nc1ccc2c(c1)S(=O)(=O)c1cc(NC(=O)c3cccs3)ccc1-2)c1cccs1 | > 10 | 5.96 | < 5.90
17 | CCOc1ccc2cc(C#N)c(SCC(=O)N3CC(=O)Nc4ccccc43)nc2c1 | > 10 | < 5.96 | < 5.90
18 | CC1CCCN(Cc2nnnn2-c2ccc(Cl)cc2)C1 (stereo not drawn) | > 10 | < 6.00 | < 5.90
19 | COC(=O)C1=C(C)N/C(=C/c2cc(C)n(-c3ccc(Cl)c(Cl)c3)c2C)C1=O | > 10 | < 5.99 | < 5.90
20 | CCOC(=O)c1c(NC(=O)Cc2ccc([N+](=O)[O-])cc2)sc2c1CCCC2 | > 10 | < 5.98 | < 5.90
21 | COc1ccccc1-c1nnc(Nc2nc3cc4c(cc3s2)OCO4)o1 | > 10 | < 5.98 | < 5.90
22 | COc1ccc(CN2CCN(C(=O)c3sc4ncn(Cc5ccccc5F)c(=O)c4c3C)CC2)c(OC)c1OC | > 10 | 6.00 | < 5.90
23 | Cc1c(Cl)cccc1NC(=O)CCC(=O)NNC(=O)c1ccccc1 | > 10 | < 6.00 | < 5.90
24 | CNC(=O)[C@@H]1C[C@@H](NCc2ccc(OC)cc2)CN1Cc1ccccc1 | > 10 | < 5.96 | < 5.90
25 | COCCn1c(=S)[nH]c2cc(C(=O)NCCc3ccc(S(N)(=O)=O)cc3)ccc2c1=O | > 10 | < 5.97 | < 5.90
26 | COc1ccc(C2C(C(=O)O)c3ccccc3C(=O)N2c2ccc(C)cc2)cc1OC (stereo not drawn) | > 10 | < 5.97 | < 5.90

Row | Structure (SMILES) | CC50 [1] [µM] | pEC50 (Plasmodium falciparum [2]) | pEC50 (Plasmodium falciparum [3])
27 | NC(=O)/C(=C\c1cccc2ccccc12)NC(=O)c1ccccc1 | > 10 | < 5.94 | < 5.90
28 | O=c1c2c3c(sc2ncn1CC1CCCCC1)CC(NCc1cccnc1)CC3 (stereo not drawn) | > 10 | < 5.98 | < 5.90
29 | O=c1c2c3c(sc2[nH]c(=S)n1C1CCCCC1)CN(Cc1ccccc1)CC3 | > 10 | < 5.98 | < 5.90
30 | CC1CC(C)(C)NC(=S)N1CCC(=O)NCCc1ccccc1 (stereo not drawn) | > 10 | 6.00 | < 5.90
31 | CC(C)CNc1nc(NCCN2CCCCC2)ncc1C(=O)NCc1ccccc1 | > 10 | 6.00 | < 5.90
32 | COc1ccc(CCNc2nc(NCCCn3ccnc3)ncc2C(=O)NCc2ccccc2)cc1OC | > 10 | 6.00 | < 5.90
33 | CCOC(=O)N1CCN(C(=O)CCCCn2c(=S)[nH]c3ccsc3c2=O)CC1 | > 10 | < 5.95 | < 5.90
34 | CCOC(=O)c1sc(NC(=O)CSc2nnc(CNC(=O)COc3ccccc3)n2C)c(C(=O)OCC)c1C | > 10 | < 5.97 | < 5.90
35 | Cc1ccc(S(=O)(=O)Nc2nc3n(n2)C(c2ccccc2)C=C(c2ccccc2)N3)cc1 (stereo not drawn) | > 10 | < 5.97 | < 5.90
36 | CC(C)CN(CC(O)CN(CCN1CCOCC1)S(=O)(=O)Cc1ccccc1)C(=O)C1CCCN1C(=O)OC(C)(C)C (stereo not drawn) | > 10 | < 5.95 | < 5.90
37 | CCC(C)(C#CCN1CCCC1)OC(C)=O (stereo not drawn) | > 10 | < 5.98 | < 5.90
38 | CC(=O)OC1C(NC(=O)c2cc([N+](=O)[O-])c(N(C)C)c([N+](=O)[O-])c2)OC(C(=O)N2CCOCC2)C(OC(C)=O)C1OC(C)=O (stereo not drawn) | > 10 | < 5.96 | < 5.90
39 | Cc1cc2ncn(N=Cc3cccnc3)c2cc1C | > 10 | < 5.99 | < 5.90
40 | COc1ccc(/C=C\c2cc[n+](C)cc2)cc1OC | > 10 | 5.96 | < 5.90
41 | Cc1ccc(-c2nn(CC(=O)Nc3cccc(C)c3)c(=O)c3ccccc23)cc1 | > 10 | < 5.96 | < 5.90
42 | CCOC(=O)C[n+]1cc(CC)sc1N | > 10 | < 5.97 | < 5.90
43 | COC(=O)C1=C(C(=O)OC)SC(=C2C(=S)C(C)(C)Nc3cc(C)ccc32)S1 | > 10 | < 5.94 | < 5.90
44 | COc1ccccc1NC(=O)c1n[nH]c(=O)c2ccccc12 | > 10 | < 5.98 | < 5.90
45 | O=C1NCCCCC1N(Cc1cccc(Oc2ccccc2)c1)C(=O)c1ccc(F)cc1 (stereo not drawn) | > 10 | < 5.97 | < 5.90
46 | CN1CCN(C(=O)c2cccc(-c3nc(-c4ccncc4)cnc3N)c2)CC1 | > 10 | < 6.00 | < 5.90
47 | CC(=O)Nc1cccc(NC(=O)CSc2ccc3nnc(-c4ccc(F)cc4)n3n2)c1 | > 10 | < 5.98 | < 5.90
48 | O=C(NN=Cc1ccc(Br)cc1)c1ccco1 | > 100 | 4.94 | < 4.90
49 | Cn1c(=O)n(C)c2cc(C=NN=c3[nH]cc(-c4ccccc4)s3)ccc21 | > 10 | < 5.97 | < 5.90
50 | C#CC(C)(C)NS(=O)(=O)c1cc(-c2nnc(Nc3cccc(C)c3)c3ccccc23)ccc1C | > 10 | 5.98 | < 5.90
51 | COc1ccc(-n2c(=S)[nH]c3cc(C(=O)Nc4cccc(C)c4)ccc3c2=O)cc1OC | > 10 | < 5.98 | < 5.90

Reference: ChEMBL document CHEMBL1156829 (Proc Natl Acad Sci U S A, 2008)
